Results taken from patent US4950686A, “Anti-mycoplasma agent” (Shionogi & Co., Ltd., priority 1986, dated 1990).
≈ marks a conversion by molar mass, not a printed value. One block for each compound: values may come before it.

Assays:
[1] = system: Mycoplasma gallisepticum S6 (standard strain); assay: Anti-mycoplasma activity in vitro (MIC, broth dilution), strain S6; type: cell-based; conditions: Mycoplasmoides gallisepticum, 168 h, Mg S6, 37° C., 7 days; read-out: MIC
Method: (§1) (1) Anti-mycoplasma activity test in vitro
(§2) MIC values of each of Tropolones were measured on the following strains according to the following method.
(§3) (a) Mycoplasma gallisepticum
(§4) Medium: Chick PPLO broth supplemented with 20% equine serum (Eiken Kagaku Co., Ltd.)
(§5) Method: Broth dilution method
(§6) Inoculum: Culture incubated at 37° C. for 24-48 hr which is diluted with broth to 10^6 CCU/ml immediately before the use.
(§7) To 1.6 ml of the broth is added 0.2 ml of an agent which has been subjected to 2-fold dilution and then added 0.2 ml of inoculum, which is incubated at 37° C. for 7 days.

[2] = system: Mycoplasma gallisepticum MR-1 (wild strain, tylosin-resistant); assay: Anti-mycoplasma activity in vitro (MIC, broth dilution), strain MR-1; type: cell-based; conditions: Mycoplasmoides gallisepticum, 168 h, Mg MR-1, 37° C., 7 days; read-out: MIC
Method: as §1, §2, §3
(§8) MR-1 (wild strain, tylosin-resistant)
as §4, §5, §6, §7

[3] = system: Mycoplasma gallisepticum T-7-T (wild strain, tylosin-resistant); assay: Anti-mycoplasma activity in vitro (MIC, broth dilution), strain T-7-T; type: cell-based; conditions: Mycoplasmoides gallisepticum, 168 h, Mg T-7-T, 37° C., 7 days; read-out: MIC
Method: as §1, §2, §3
(§9) T-7-T (wild strain, tylosin-resistant)
as §4, §5, §6, §7

[4] = system: Mycoplasma hyopneumoniae ST-11 (standard strain); assay: Anti-mycoplasma activity in vitro (MIC, broth dilution), strain ST-11; type: cell-based; conditions: Mesomycoplasma hyopneumoniae, Mh ST-11; read-out: MIC
Method: as §1, §2
(b) Mycoplasma hyopneumoniae
Strain: ST-11 (standard strain)
Medium: 850 ml of Hanks' solution supplemented with 0.5% lactoalbumin, 50 ml of 25% yeast, 100 ml of equine serum and 4-6 ml of 0.5% phenol red (pH 7.4-7.6)
as §5
Inoculum: Culture which is incubated for 3-4 days and diluted 10 times with the broth if color of the broth becomes yellow then. If it needs over 4 days until color of the broth becomes yellow, it is further subcultured. This is diluted 10 times with the broth to give inoculum.
Assay is done in the same manner as in the above (a).

[5] = system: Mycoplasma gallisepticum T-7-T (wild strain, tylosin-resistant); assay: Mycoplasma gallisepticum air-sac infection method in chicken, strain T-7-T; type: in vivo, Mycoplasma gallisepticum; SPF chicken (white leghorn);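 for Index of Isolation: index = (P×1 + Q×2 + R×3)/S with range 0 to 6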
Method: (§10) (2) Test of Effectiveness Mycoplasma gallisepticum air-sac infection method
as §9
(§11) Inoculation: To the right air-sac of 9 days old SPF chicken (a white leghorn) which has abstained from water and feed one day before is inoculated 0.20-0.25 ml/chicken of fresh mycoplasma culture incubated for 24-48 hr and diluted with broth (usually 100 times). The concentration in Table 2 is shown in a unit of mg/ml.
(§12) Medium: Chick PPLO broth supplemented with 15% equine serum (Eiken Kagaku Co., Ltd.)
(§13) Administration: A compound of this invention dissolved or suspended in the following solution is orally and forcibly administered once by a cannula immediately after the infection.
(§14) Anatomization and Isolation of Microorganism: The chickens are anatomized 5 days after the infection, and the right and left air sacs are investigated whether they are attacked with a disease or not. The change caused by the disease is represented in four degrees; -: no change, +: slight, ++: medium and +++: serious. Microorganism is isolated from the right and left air-sacs and the trachea by using a sterilized applicator.
(§15) Judgement: Judgement is done through an index of an air-sac disease and an index of a microorganism-isolation.
(§16) Index of an air-sac-disease: First, indexes in the right and left air-sacs are separately calculated according to the following formula;
(§17) {degree of disease (0-3)×chickens}/anatomized chickens
(§18) and the index is calculated by the following formula;
(§19) (index of right air-sac)×1+(index of left air-sac)×2
(§20) Index of a microorganism isolation:
(§21) P: chickens from the right air-sac of which microorganism is isolated,
(§22) Q: chickens from the trachea of which microorganism is isolated,
(§23) R: chickens from the left air-sac of which microorganism is isolated, and
(§24) S: chickens investigated.

[6] = system: Mycoplasma gallisepticum MR-1 (wild strain, tylosin-resistant); assay: Mycoplasma gallisepticum air-sac infection method in chicken, strain MR-1;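 for Index of Isolation: index = (P×1 + Q×2 + R×3)/S with range 0 to 6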; type: in vivo, Mycoplasma gallisepticum; SPF chicken (white leghorn); conditions: 100 mg/kg × once oral, 10 mg/ml sol. b
Method: as §10, §8, §11, §12, §13, §14, §15, §16, §17, §18, §19, §20, §21, §22, §23, §24

[7] = 200 mg/kg × once oral, 20 mg/ml DW, inoculum 1.9 × 10^5
[8] = 200 mg/kg × once oral, 20 mg/ml DW, inoculum 1.9 × 10^5, range 0-6.0
[9] = 200 mg/kg × once oral, 20 mg/ml DW, inoculum 1.9 × 10^5, range 0-9.0
[10] = 100 mg/kg × once oral, 10 mg/ml sol. b, inoculum 10^2

MIC [1]: 6.25 µg/mL (≈ 38.3 µM)
MIC [2]: 12.5 µg/mL (≈ 76.6 µM)
MIC [3]: 6.25 µg/mL (≈ 38.3 µM)
MIC [4]: 0.39 µg/mL (≈ 2.39 µM)
SMILES: N#CSc1cccccc1=O [Compound 15, 2-Thiocyanatotropone]

MIC [1]: > 25 µg/mL
MIC [4]: > 25 µg/mL
SMILES: CC(Oc1cccccc1=O)C(=O)O (stereo not shown) [Compound 17, O-(1-Carboxyethyl)tropolone]

MIC [1]: > 25 µg/mL
MIC [4]: 25 µg/mL (≈ 154 µM)
SMILES: C=CCOc1cccccc1=O [Compound 22, O-Allyltropolone]

Further lines, the compound ahead of its results:

SMILES: Cc1ccc(S(=O)(=O)Oc2cccccc2=O)cc1 [Compound 16, O-(p-Toluensulfonyl)tropolone]
MIC [1]: 3.13 µg/mL (≈ 11.3 µM)
MIC [4]: 6.25 µg/mL (≈ 22.6 µM)

SMILES: CC(C)(C)OC(=O)COc1cccccc1=O [Compound 18, O-(tert-Butyloxycarbonylmethyl)tropolone]
MIC [1]: > 25 µg/mL
MIC [4]: > 25 µg/mL

SMILES: CCOC(=O)C(C)Oc1cccccc1=O (stereo not shown) [Compound 20, O-(1-Ethoxycarbonylethyl)tropolone]
MIC [1]: > 25 µg/mL
MIC [3]: > 25 µg/mL
MIC [4]: > 25 µg/mL

SMILES: O=C(COc1cccccc1=O)c1ccccc1 [Compound 21, O-(Benzoylmethyl)tropolone]
MIC [1]: 0.78 µg/mL (≈ 3.25 µM)
MIC [4]: 0.2 µg/mL (≈ 0.832 µM)

SMILES: C[C@H]1c2cccc(O)c2C(=O)C2=C(O)[C@]3(O)C(=O)C(C(N)=O)=C(O)[C@@H](N(C)C)[C@@H]3[C@@H](O)[C@@H]21 [doxycycline, reference compound]
Change of air-sac, left: + (chickens) [5, 7]: 2
Change of air-sac, left: ++ (chickens) [5, 7]: 1
Change of air-sac, left: +++ (chickens) [5, 7]: 0
Change of air-sac, left: - (chickens) [5, 7]: 2
Change of air-sac, right: + (chickens) [5, 7]: 0
Change of air-sac, right: ++ (chickens) [5, 7]: 4
Change of air-sac, right: +++ (chickens) [5, 7]: 0
Change of air-sac, right: - (chickens) [5, 7]: 1
Isolation, L (left air-sac) [5, 7]: 5
Isolation, R (right air-sac) [5, 7]: 5
Isolation, T (trachea) [5, 7]: 5
Mycoplasma Isolated Chickens [5, 7]: 5
Index of Isolation [5, 8]: 6.0
Index of Disease [5, 9]: 3.2

SMILES: CC[C@H]1OC(=O)C[C@@H](O)[C@H](C)[C@@H](O[C@@H]2O[C@H](C)[C@@H](O[C@H]3C[C@@](C)(O)[C@@H](O)[C@H](C)O3)[C@H](N(C)C)[C@H]2O)[C@@H](CC=O)C[C@@H](C)C(=O)/C=C/C(C)=C/[C@@H]1CO[C@@H]1O[C@H](C)[C@@H](O)[C@@H](OC)[C@H]1OC [tylosin, reference compound]
Change of air-sac, left: + (chickens) ([6]; inoculum 0.3 × 10^5): 1
Change of air-sac, left: ++ (chickens) ([6]; inoculum 0.3 × 10^5): 0
Change of air-sac, left: +++ (chickens) ([6]; inoculum 0.3 × 10^5): 0
Change of air-sac, left: - (chickens) ([6]; inoculum 0.3 × 10^5): 5
Change of air-sac, right: + (chickens) ([6]; inoculum 0.3 × 10^5): 0
Change of air-sac, right: ++ (chickens) ([6]; inoculum 0.3 × 10^5): 3
Change of air-sac, right: +++ (chickens) ([6]; inoculum 0.3 × 10^5): 3
Change of air-sac, right: - (chickens) ([6]; inoculum 0.3 × 10^5): 0
Isolation, L (left air-sac) ([6]; inoculum 0.3 × 10^5): 6
Isolation, R (right air-sac) ([6]; inoculum 0.3 × 10^5): 6
Isolation, T (trachea) ([6]; inoculum 0.3 × 10^5): 6
Mycoplasma Isolated Chickens ([6]; inoculum 0.3 × 10^5): 6
Index of Isolation ([6]; inoculum 0.3 × 10^5, range 0-6.0): 6.0
Index of Disease ([6]; inoculum 0.3 × 10^5, range 0-9.0): 2.8
Change of air-sac, left: + (chickens) [5, 10]: 0
Change of air-sac, left: ++ (chickens) [5, 10]: 2
Change of air-sac, left: +++ (chickens) [5, 10]: 0
Change of air-sac, left: - (chickens) [5, 10]: 6
Change of air-sac, right: + (chickens) [5, 10]: 1
Change of air-sac, right: ++ (chickens) [5, 10]: 5
Change of air-sac, right: +++ (chickens) [5, 10]: 1
Change of air-sac, right: - (chickens) [5, 10]: 1
Isolation, L (left air-sac) [5, 10]: 8
Isolation, R (right air-sac) [5, 10]: 7
Isolation, T (trachea) [5, 10]: 8
Mycoplasma Isolated Chickens [5, 10]: 8
Index of Isolation ([5]; 100 mg/kg × once oral, 10 mg/ml sol. b, inoculum 10^2, range 0-6.0): 5.60
Index of Disease ([5]; 100 mg/kg × once oral, 10 mg/ml sol. b, inoculum 10^2, range 0-9.0): 2.80
Change of air-sac, left: + (chickens) [5, 7]: 0
Change of air-sac, left: ++ (chickens) [5, 7]: 0
Change of air-sac, left: +++ (chickens) [5, 7]: 0
Change of air-sac, left: - (chickens) [5, 7]: 5
Change of air-sac, right: + (chickens) [5, 7]: 0
Change of air-sac, right: ++ (chickens) [5, 7]: 1
Change of air-sac, right: +++ (chickens) [5, 7]: 4
Change of air-sac, right: - (chickens) [5, 7]: 0
Isolation, L (left air-sac) [5, 7]: 4
Isolation, R (right air-sac) [5, 7]: 5
Isolation, T (trachea) [5, 7]: 5
Mycoplasma Isolated Chickens [5, 7]: 5
Index of Isolation [5, 8]: 5.4
Index of Disease [5, 9]: 2.8
